Here are results for three molecules from patent publication US20180092866A1, “SUBSTITUTED N-([1,1'-BIPHENYL]-3-YL)-[1,1'-BIPHENYL]-3-CARBOXAMIDE ANALOGS AS INHIBITORS FOR BETA-CATENIN/B-CELL LYMPHOMA 9 INTERACTIONS” (University of Utah Research Foundation, priority 2015, published 2018).

The test system of test [1] is AXIN2, LGR5, LEF1, and cyclin D1 transcription in MDA-MB-231 cells. Kind of test: Quantitative real-time PCR, MDA-MB-231 cells. The following applies: 2 and 4 μM. The class given is cell-based, human. How it is done:
SW480 and MDA-MB-231 cells at 1×10^6/mL were treated with different concentrations of 21 for 24 h. Total RNAs were extracted with TRIzol ([…], Life Technologies), and the cDNA was synthesized with the superscript III first-strand kit (18080-051, Invitrogen). Quantitative PCR (qPCR) was performed using the iQ™ SYBR green supermix kit (170-8880, BIO-RAD) on an iQ^5 multicolor real-time PCR reaction system (BIO-RAD). The threshold cycle (CT) values were normalized to that of internal reference GAPDH. The primer pairs for human GAPDH were forward: 5′-[…]-3′, and reverse: 5′-[…]-3′, for human AXIN2 forward: 5′-[…]-3′ and reverse: 5′-[…]-3′, for human LGR5 forward: 5′-[…]-3′ and reverse: 5′-[…]-3′, for human LEF1 forward: 5′-[…]-3′ and reverse: 5′-[…] […]-3′, and for human cyclin D1 forward: 5′-[…]-3′, and revers: 5′-[…]-3′. Experiments were performed in triplicate.

The target of test [2] is T1, wild-type human β-catenin (residues 138-686) (Homo sapiens, UniProt P35222).
T1 construct: His6 (C); made in house; host or cells: E. coli BL21 DE3
T1 sequence (P35222 138-686): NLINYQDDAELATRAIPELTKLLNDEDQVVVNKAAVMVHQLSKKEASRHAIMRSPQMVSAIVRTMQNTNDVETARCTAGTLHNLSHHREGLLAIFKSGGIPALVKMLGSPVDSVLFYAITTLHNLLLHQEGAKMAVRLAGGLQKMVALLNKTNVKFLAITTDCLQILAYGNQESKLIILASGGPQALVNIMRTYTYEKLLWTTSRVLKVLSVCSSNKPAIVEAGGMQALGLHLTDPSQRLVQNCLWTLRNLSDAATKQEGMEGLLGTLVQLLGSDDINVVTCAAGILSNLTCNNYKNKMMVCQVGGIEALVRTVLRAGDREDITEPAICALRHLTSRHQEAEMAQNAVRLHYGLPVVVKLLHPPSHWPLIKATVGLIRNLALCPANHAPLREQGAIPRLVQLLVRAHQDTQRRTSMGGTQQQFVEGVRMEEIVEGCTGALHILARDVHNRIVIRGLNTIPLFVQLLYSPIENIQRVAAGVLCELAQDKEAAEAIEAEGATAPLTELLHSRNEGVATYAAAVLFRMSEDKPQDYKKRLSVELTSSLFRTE
Nature of the test: Isothermal titration calorimetry, wild-type β-catenin. The class given is binding. Particulars: ITC, 28° C. As to the method:
(§1) ITC measurements were performed at 28° C. using a VP-ITC (Microcal, GE Healthcare Life Sciences). […] The homogeneity of the purified proteins were examined by native gel electrophoresis. Each titration experiment was initiated by a 2 μL injection, and followed by 30-35 times injections with an 8 μL volume each. Blank titrations, which were carried out by injecting the compound into the buffer, were subtracted from each data set. The association constant KA, enthalpy change (ΔH), and stoichiometry N were obtained from fitting the data using the Origin software package. The dissociation constant Kd, the free energy change ΔG, and the entropy change ΔS were obtained from the basic thermodynamic equations, Kd=KA^−1, ΔG=−RTlnKA, and ΔG=ΔH−TΔS.

Test [3] addresses T2, β-catenin L159S mutant (residues 138-686) (Homo sapiens, UniProt P35222, L159S).
T2 construct: His6 (C); made in house; host or cells: E. coli BL21 DE3
T2 sequence (P35222 138-686 L159S): T1 sequence (P35222 138-686) with L22S
Nature of the test: Isothermal titration calorimetry, β-catenin L159S. The class given is binding. The following applies: ITC.
Text: (§2) Mutants β-catenin D145A, E155A, L156S, L159S, D145A/E155A, L156S/L159S, and L156S/L178S were generated using the overlapping PCR method. Template for the mutagenesis reactions was wide type full-length β-catenin in pET-28b. KOD hot start DNA polymerase (Novagen) was used through this experiment. Mutants were confirmed by direct sequencing (Core facility, University of Utah). Following the confirmation of the sequence, mutant β-catenin were cloned into a pET-28b vector and transformed into E. coli BL21 DE3.
as §1

For test [4], the target named is T3, β-catenin L156S/L178S mutant (residues 138-686) (Homo sapiens, UniProt P35222, L156S/L178S).
T3 construct: His6 (C); made in house; host or cells: E. coli BL21 DE3
T3 sequence (P35222 138-686 L156S/L178S): T1 sequence (P35222 138-686) with L19S, L41S
Nature of the test: Isothermal titration calorimetry, β-catenin L156S/L178S. The class given is binding. Particulars: ITC.
Text: as §2, §1

Test [5] concerns the target T4, β-catenin/E-cadherin PPIs (Homo sapiens, UniProt P35222).
T4 construct: β-Catenin or its mutants (residues 138-686) was cloned into a pET-28b vector; made in house; host or cells: E. coli BL21 DE3
T4 sequence (P35222 138-686): T1 sequence (P35222 138-686)
Nature of the test: AlphaScreen selectivity assay, β-catenin/BCL9 versus β-catenin/E-cadherin. In kind it is binding. An excerpt: Human BCL9 (residues 350-375), N-terminally biotinylated human BCL9 (residues 350-375), N-terminally fluorescein-labeled human BCL9 (residues 350-375), and N-terminally biotinylated human E-cadherin (residues 824-877) were synthesized by InnoPep Inc. (San Diego, Calif., www.innopep.com). All synthesized peptides were purified by HPLC with purity >95%. The structures were validated by LC/MS. The sequences are shown in Table 2 (Ahx, 6-aminohexanoic acid).
The purity of the wild-type and mutant β-catenin proteins was all greater than 95% as determined by the SDS-PAGE gel analysis. Both the wild-type and mutant β-catenin proteins are stable under the testing conditions. Native non-denaturing gel electrophoresis was performed to confirm the homogeneity of the purified proteins. Experiments were performed in white opaque 384-well plates from PerkinElmer, and the samples were read on a Synergy 2 plate reader (Biotek) with a sensitivity setting of 200 using AlphaScreen protocol with excitation at 680 nm and emission at 570 nm. All dilutions were made in 1×assay buffer containing 25 mM HEPES (pH=7.0), 100 mM NaCl, 0.01% Triton X-100, and 0.1% BSA. […] The IC50 value was determined by nonlinear least-square analysis of GraphPad Prism 5.0. […]

Test [6] deals with T5, β-catenin/BCL9 protein-protein interactions (Homo sapiens, UniProt P35222).
T5 construct: C-terminally His6-tagged wild-type or mutant β-catenin (residues 138-686) proteins; made in house; host or cells: E. coli BL21 DE3
T5 sequence (P35222 138-686): T1 sequence (P35222 138-686)
Nature of the test: AlphaScreen competitive inhibition assay, wild-type β-catenin/BCL9. In kind it is binding. Particulars: for Ki: wild-type β-catenin (residues 138-686)/biotinylated BCL9 26-mer, Ki derived from IC50, mean ± SD. How it is done: The purity of the wild-type and mutant β-catenin proteins was all greater than 95% as determined by the SDS-PAGE gel analysis. Both the wild-type and mutant β-catenin proteins are stable under the testing conditions. Native non-denaturing gel electrophoresis was performed to confirm the homogeneity of the purified proteins. Experiments were performed in white opaque 384-well plates from PerkinElmer, and the samples were read on a Synergy 2 plate reader (Biotek) with a sensitivity setting of 200 using AlphaScreen protocol with excitation at 680 nm and emission at 570 nm. All dilutions were made in 1×assay buffer containing 25 mM HEPES (pH=7.0), 100 mM NaCl, 0.01% Triton X-100, and 0.1% BSA. In the AlphaScreen competitive inhibition assay, 40 nM of C-terminally His6-tagged wild-type or mutant β-catenin (residues 138-686) proteins was incubated with 5 nM of N-terminal biotinylated human BCL9 26-mer (residues 350-375) for 30 min at 4° C., and then different concentrations of the tested inhibitors in the assay buffer were added to make a final volume of 20 μL. The mixture was incubated at 4° C. for 2 h. The donor and acceptor beads were added to a final concentration of 10 μg/mL in 25 μL of assay buffer. The mixture was incubated at 4° C. for 1 h. The IC50 value was determined by nonlinear least-square analysis of GraphPad Prism 5.0. […] The Ki values were derived from the IC50 values by a reported method (Nikolovska-Coleska et al. (2004) Anal. Biochem. […]: 261-273). Experiments were performed in triplicate and carried out in the presence of 1% DMSO.

Changes are numbered by the printed parent chain. Where a name gives a salt, the structure may show the parent alone.

Turning to `O=C(Nc1ccc(O[C@H]2CCNC2)c(-c2ccc(F)cc2)c1)c1ccc(O[C@H]2CCNC2)c(-c2ccc(F)c(F)c2)c1` [Compound 21, (S)-3-((3′,4′-difluoro-5-((4′-fluoro-6-((S)-pyrrolidin-1-ium-3-yloxy)-[1,1′-biphenyl]-3-yl)carbamoyl)-[1,1′-biphenyl]-2-yl)oxy) pyrrolidin-1-ium chloride], the “inhibition of mRNA expression” value in test [1] is on record as “More than 50%”. For the same molecule, the Kd in test [2] amounted to 0.333 ± 0.006 µM; in test [3] it was 0.924 ± 0.033 µM; in test [4] it was 1.59 ± 0.045 µM.

As to `O=C(NCCCC(=O)N1CCNCC1)c1ccc(-c2cc(C(=O)Nc3ccc(O[C@H]4CCNC4)c(-c4ccc(F)cc4)c3)ccc2O[C@H]2CCNC2)cc1` [Compound 29, 4-(4-(5′-((4′-fluoro-6-((S)-pyrrolidin-1-ium-3-yloxy)-[1,1′-biphenyl]-3-yl)carbamoyl)-2′-((S)-pyrrolidin-1-ium-3-yloxy)-[1,1′-biphenyl]-4-ylcarboxamido)butanoyl) piperazin-1-ium], the “selectivity for β-catenin/BCL9 over β-catenin/E-cadherin PPIs (in words)” value in test [5] is on record as “much higher selectivity”. Besides, the “relative inhibitory potency for β-catenin/BCL9 PPIs (in words)” value in test [6] (AlphaScreen assay, comparison with named compound) is given as “comparable inhibitory potency for β-catenin/BCL9 PPIs as 21”. Moreover, in test [6], the inhibition constant Ki came out at 2.1 ± 0.432 µM.

On to `Cc1ccccc1-c1cc(NC(=O)c2ccc(O[C@H]3CCNC3)c(-c3ccc(F)c(F)c3)c2)ccc1O[C@H]1CCNC1` [Compound 91a, 3′,4′-Difluoro-N-(2′-methyl-6-((S)-pyrrolidin-3-yloxy)-[1,1′-biphenyl]-3-yl)-6-((S)-pyrrolidin-3-yloxy)-[1,1′-biphenyl]-3-carboxamide dihydrochloride], for which the Ki in test [6] is 36 ± 7.21 µM.
